Measurements from PubChem BioAssay (NCI).
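Results reflect a 48-hour exposure of cells in 96-well plates to compound at five concentrations. GI50: concentration for 50% inhibition of growth. Definition used: TGI = concentration required for complete inhibition of growth.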

How the values were obtained:
Assay in all cases: growth of human tumour cells (NCI), 48 h
[1] = tested on: 786-0 renal
[2] = tested on: A549 NSCLC
[3] = tested on: ACHN renal
[4] = tested on: BT-549 breast
[5] = tested on: CCRF-CEM leukemia
[6] = tested on: COLO 205 colon
[7] = tested on: DU-145 prostate
[8] = tested on: EKVX NSCLC
[9] = tested on: HCC-2998 colon
[10] = tested on: HCT-116 colon
[11] = tested on: HCT-15 colon
[12] = tested on: HL-60(TB) leukemia
[13] = tested on: HOP-62 NSCLC
[14] = tested on: HOP-92 NSCLC
[15] = tested on: HS 578T breast
[16] = tested on: HT29 colon
[17] = tested on: IGROV1 ovarian
[18] = tested on: K-562 leukemia
[19] = tested on: KM12 colon
[20] = tested on: LOX IMVI melanoma
[21] = tested on: M14 melanoma
[22] = tested on: MALME-3M melanoma
[23] = tested on: MCF7 breast
[24] = tested on: MDA-MB-231 breast
[25] = tested on: MDA-MB-435
[26] = tested on: MOLT-4 leukemia
[27] = tested on: NCI-H226 lung
[28] = tested on: NCI-H23 lung
[29] = tested on: NCI-H460 lung
[30] = tested on: NCI-H522 lung
[31] = tested on: NCI/ADR-RES ovarian
[32] = tested on: OVCAR-3 ovarian
[33] = tested on: OVCAR-4 ovarian
[34] = tested on: OVCAR-5 ovarian
[35] = tested on: OVCAR-8 ovarian
[36] = tested on: PC-3 prostate
[37] = tested on: RPMI-8226 leukemia
[38] = tested on: RXF 393 renal
[39] = tested on: SF-268 CNS
[40] = tested on: SF-295 CNS
[41] = tested on: SF-539 CNS
[42] = tested on: SK-MEL-2 melanoma
[43] = tested on: SK-MEL-28 melanoma
[44] = tested on: SK-MEL-5 melanoma
[45] = tested on: SK-OV-3 ovarian
[46] = tested on: SN12C renal
[47] = tested on: SNB-19 CNS
[48] = tested on: SNB-75 CNS
[49] = tested on: SR leukemia
[50] = tested on: SW-620 colon
[51] = tested on: TK-10 renal
[52] = tested on: U251 CNS
[53] = tested on: UACC-257 melanoma
[54] = tested on: UACC-62 melanoma
[55] = tested on: UO-31 renal
[56] = tested on: A498 renal
[57] = tested on: T-47D breast

## CN(C)CCCNC(=O)c1cc(NC(=O)c2cc(NC(=O)c3cc(NC(=O)CCc4c[nH]c5ccccc45)cn3C)cn2C)cn1C
[1]
  GI50: > 100 µM
  TGI: > 100 µM
[2]
  GI50: > 100 µM
  TGI: > 100 µM
[3]
  GI50: > 100 µM
  TGI: > 100 µM
[4]
  GI50: > 100 µM
  TGI: > 100 µM
[5]
  GI50: > 100 µM
  TGI: > 100 µM
[6]
  GI50: > 100 µM
  TGI: > 100 µM
[7]
  GI50: > 100 µM
  TGI: > 100 µM
[8]
  GI50: > 100 µM
  TGI: > 100 µM
[9]
  GI50: > 100 µM
  TGI: > 100 µM
[10]
  GI50: > 100 µM
  TGI: > 100 µM
[11]
  GI50: > 100 µM
  TGI: > 100 µM
[12]
  GI50: > 100 µM
  TGI: > 100 µM
[13]
  GI50: > 100 µM
  TGI: > 100 µM
[14]
  GI50: 67.1 µM
  TGI: > 100 µM
[15]
  GI50: 0.0701 µM
  TGI: > 100 µM
[16]
  GI50: 30.7 µM
  TGI: > 100 µM
[17]
  GI50: > 100 µM
  TGI: > 100 µM
[18]
  GI50: > 100 µM
  TGI: > 100 µM
[19]
  GI50: > 100 µM
  TGI: > 100 µM
[20]
  GI50: > 100 µM
  TGI: > 100 µM
[21]
  GI50: > 100 µM
  TGI: > 100 µM
[22]
  GI50: 30.4 µM
  TGI: 88.7 µM
[23]
  GI50: 56.8 µM
  TGI: > 100 µM
[24]
  GI50: > 100 µM
  TGI: > 100 µM
[25]
  GI50: > 100 µM
  TGI: > 100 µM
[26]
  GI50: > 100 µM
  TGI: > 100 µM
[27]
  GI50: > 100 µM
  TGI: > 100 µM
[28]
  GI50: > 100 µM
  TGI: > 100 µM
[29]
  GI50: > 100 µM
  TGI: > 100 µM
[30]
  GI50: > 100 µM
  TGI: > 100 µM
[31]
  GI50: > 100 µM
  TGI: > 100 µM
[32]
  GI50: > 100 µM
  TGI: > 100 µM
[33]
  GI50: 88.5 µM
  TGI: > 100 µM
[34]
  GI50: > 100 µM
  TGI: > 100 µM
[35]
  GI50: > 100 µM
  TGI: > 100 µM
[36]
  GI50: > 100 µM
  TGI: > 100 µM
[37]
  GI50: > 100 µM
  TGI: > 100 µM
[38]
  GI50: > 100 µM
  TGI: > 100 µM
[39]
  GI50: > 100 µM
  TGI: > 100 µM
[40]
  GI50: > 100 µM
  TGI: > 100 µM
[41]
  GI50: > 100 µM
  TGI: > 100 µM
[42]
  GI50: > 100 µM
  TGI: > 100 µM
[43]
  GI50: 2.24 µM
  TGI: > 100 µM
[44]
  GI50: > 100 µM
  TGI: > 100 µM
[45]
  GI50: > 100 µM
  TGI: > 100 µM
[46]
  GI50: > 100 µM
  TGI: > 100 µM
[47]
  GI50: > 100 µM
  TGI: > 100 µM
[48]
  GI50: > 100 µM
  TGI: > 100 µM
[49]
  GI50: > 100 µM
  TGI: > 100 µM
[50]
  GI50: > 100 µM
  TGI: > 100 µM
[51]
  GI50: > 100 µM
  TGI: > 100 µM
[52]
  GI50: > 100 µM
  TGI: > 100 µM
[53]
  GI50: > 100 µM
  TGI: > 100 µM
[54]
  GI50: > 100 µM
  TGI: > 100 µM
[55]
  GI50: > 100 µM
  TGI: > 100 µM

## COC12C=CC(CC1)C1C(=O)c3c(C)c(C)n(C)c3C(=O)C12 (stereo not drawn)
[1]
  TGI: > 100 µM
[56]
  TGI: > 100 µM
[3]
  TGI: > 100 µM
[4]
  TGI: > 100 µM
[5]
  TGI: > 100 µM
[6]
  TGI: > 100 µM
[7]
  TGI: > 100 µM
[8]
  TGI: > 100 µM
[10]
  TGI: > 100 µM
[11]
  TGI: > 100 µM
[13]
  TGI: > 100 µM
[15]
  TGI: > 100 µM
[16]
  TGI: > 100 µM
[17]
  TGI: > 100 µM
[18]
  TGI: > 100 µM
[19]
  TGI: > 100 µM
[20]
  TGI: > 100 µM
[21]
  TGI: > 100 µM
[22]
  TGI: > 100 µM
[23]
  TGI: > 100 µM
[25]
  TGI: > 100 µM
[26]
  TGI: > 100 µM
[27]
  TGI: > 100 µM
[28]
  TGI: > 100 µM
[29]
  TGI: > 100 µM
[31]
  TGI: > 100 µM
[32]
  TGI: > 100 µM
[34]
  TGI: > 100 µM
[35]
  TGI: > 100 µM
[36]
  TGI: > 100 µM
[37]
  TGI: > 100 µM
[38]
  TGI: > 100 µM
[39]
  TGI: > 100 µM
[40]
  TGI: > 100 µM
[41]
  TGI: > 100 µM
[42]
  TGI: > 100 µM
[44]
  TGI: > 100 µM
[45]
  TGI: > 100 µM
[47]
  TGI: > 100 µM
[48]
  TGI: > 100 µM
[49]
  TGI: > 100 µM
[50]
  TGI: > 100 µM
[57]
  TGI: > 100 µM
[51]
  TGI: > 100 µM
[52]
  TGI: > 100 µM
[53]
  TGI: > 100 µM
[54]
  TGI: > 100 µM
[55]
  TGI: > 100 µM
